The record followed here is patent US20220347130A1, “ANTI-OBESITY COMPOSITION CONTAINING COLCHICINE AND METFORMIN AS EFFECTIVE AGENTS” (priority 2021, published 2022).

One experiment deals with SREBP-1c. Description: Expression of obesity-related gene SREBP-1c in epididymal fat of obesity-induced rats. The class given is in vivo. As to conditions: epididymal fat of HFD obesity-induced rats; colchicine 50, 100, 200 μg/kg and/or metformin 200 mg/kg, oral once a day; FIG. 4. As to the method:
(§1) Meanwhile, after the drugs were administered to the obesity-induced rats, the expression of obesity-related genes SREBP-1c and FAS was measured, and the results thereof were illustrated in FIGS. 4A and 4B.

The format of experiment [1] is in vivo, rats. As to conditions: oral once a day; for blood levels of AST and ALT (in words): HFD obesity-induced rats, colchicine 50, 100, 200 μg/kg and/or metformin 200 mg/kg, Table 1; for ALT / AST: HFD rats, 12 weeks, blood. The protocol: Finally, after the drugs were administered to the obesity-induced rats, changes in blood levels of aspartate aminotransferase (AST) and alanine transaminase (ALT) were measured and illustrated in Table 1 below.

Experiment [2] is described as follows: Epididymal fat weight of HFD obesity-induced rats. The class given is in vivo. Conditions: for weight of epididymal fat: colchicine 50, 100, 200 μg/kg and/or metformin 200 mg/kg, oral once a day, FIG. 3; for effect of reducing the fat of the obesity-induced rats: summary of the results. As to the method:
Next, after the drugs were administered to the obesity-induced rats, the weights of epididymal fat were measured and the results thereof was illustrated in FIG. 3.

The conditions of experiment [3]: HFD obesity-induced rats; colchicine 50, 100, 200 μg/kg and/or metformin 200 mg/kg, oral once a day; FIG. 1.
Procedure: Low fat diet (LFD: containing 10 kcal % fat) or high fat diet (HFD: containing 60 kcal % fat) feed was taken autonomously for 12 weeks in 6-week-old C57BL/6J sp. male rats. The obesity-induced rats due to the intake of the HFD feed additionally took the HFD feed for 12 weeks and were administered with colchicine of 50, 100, and 200 μg/kg or metformin of 200 mg/kg alone or co-administered with the colchicine and the metformin. A control drug, Xenical (orlistat ingredient) was administered alone at 60 mg/kg. All drugs were orally administered once a day.
Changes in body weight of obesity-induced rats were measured according to single administration of colchicine or metformin and co-administration of colchicine and metformin, which were illustrated in FIG. 1.
In experiment [4] the test system is FAS (fatty acid synthase). As to the kind of experiment: Expression of obesity-related gene FAS in epididymal fat of obesity-induced rats. The class given is in vivo. Conditions: epididymal fat of HFD obesity-induced rats; colchicine 50, 100, 200 μg/kg and/or metformin 200 mg/kg, oral once a day; FIG. 4. As to the method:
as §1

Structures are written as SMILES. Read-outs that look alike come from different tables or passages of the source.

Regarding `COc1cc2c(c(OC)c1OC)-c1ccc(OC)c(=O)cc1[C@@H](NC(C)=O)CC2` [Colchicine, colchicine], the “expression of SREBP-1c” value in the experiment on SREBP-1c was “not changed”. Also, in experiment [1], the “blood levels of AST and ALT (in words)” value is “not changed”. Besides, in experiment [1] (colchicine 50 μg/kg), the ALT is reported as 175.08 ± 2.78 U/L and the AST came out at 372.26 ± 3.75 U/L. In experiment [1] (colchicine 100 μg/kg), this molecule yielded an ALT of 164.5 ± 2.11 U/L and an AST of 346.91 ± 3.90 U/L. In experiment [1] (colchicine 200 μg/kg), this molecule had an ALT of 157.38 ± 3.3 U/L and an AST of 309.24 ± 2.61 U/L. Also, in experiment [2], the “weight of epididymal fat” value is listed as “not changed” and the “effect of reducing the fat of the obesity-induced rats” value is given as “almost no effect”. Moreover, the “changes in body weight (increase in body weight induced by the HFD)” value in experiment [3] is reported as “not changed”. In addition, the “expression of FAS” value in experiment [4] is “not changed”.
`CN(C)C(=N)N=C(N)N` [Metformin, metformin]: the “expression of SREBP-1c” value in the experiment with SREBP-1c was “slightly reduced”. Further, the “blood levels of AST and ALT (in words)” value in experiment [1] is listed as “slightly reduced”. In experiment [1] (metformin 200 mg/kg), this molecule gave an ALT of 156.41 ± 2.77 U/L and an AST of 284.37 ± 2.78 U/L. Further, in experiment [2], the “weight of epididymal fat” value was “slightly reduced” and the “effect of reducing the fat of the obesity-induced rats” value is “a slight effect”. Moreover, the “changes in body weight (increase in body weight induced by the HFD)” value in experiment [3] is reported as “slightly reduced”. In experiment [4], the “expression of FAS” value is listed as “slightly reduced”.
In experiment [1] (orlistat 60 mg/kg), `CCCCCCCCCCC[C@@H](C[C@@H]1OC(=O)[C@H]1CCCCCC)OC(=O)[C@H](CC(C)C)NC=O` [Orlistat, orlistat] registered an ALT of 175.20 ± 3.11 U/L and an AST of 203.31 ± 3.72 U/L.
